Data set [1] is described as follows: Pharmacokinetic screening in rats, brain and plasma concentrations at 6 hour time point. The format is in vivo. Conditions: male, Sprague Dawley, rat, 5 mg/kg oral (PO), 6 hour time point; for concentration at 6 h: 2% Tween 80 in distilled water; for Kp at 6 h: brain/plasma ratio, read-out: B/P Ratio. On the procedure:
Pharmacokinetic screening in rats was performed on various compounds to measure brain and plasma concentrations at 6 hour time point.
The parameters for the pharmacokinetic protocol were as follows.
Amount of compound: 5 mg/kg
Species: Rat; Strain: Sprague Dawley; Sex: Male
Average body weight at dose: weight ranged from 271 to 423 grams
Average age at dose: age ranged from 9 to 14 weeks
Diet Status Overnight fasting
Number of Animals (n) for each time point: 2
Formulation: 2% Tween 80 in distilled water
Each formulation was administered once by oral gavage. The dose volume was 5 mL/kg for all animals. The actual volume administered to each animal was calculated and adjusted based on the most recent body weight.
Blood samples (approximately 300 μL whole blood) at (1, 2, and 4 h) was collected from each animal via tail vein except for terminal blood samples. Terminal blood (6 h) samples were collected via cardiac puncture. All samples were collected into tubes containing lithium heparin (Multivette 600 LH-Gel, Sarstedt, Newton, N.C., USA). Following collection, the tubes were placed in refrigerator (maximum 30 minutes) or until centrifugation under refrigeration (at 2 to 8° C.) at 1500 g for approximately 15 minutes. Each harvested plasma sample was then transferred into 1.2 mL polypropylene tubes, on the 96-Well Plate according to the 96-Well Plate plasma sample map and kept in freezer. Plasma samples were then analyzed for test substances.
Brain samples were collected immediately after the animals were euthanized at designated time points. Brain samples were rinsed with saline, blotted dry, and weighed. Brain samples were placed into individual containers and kept in freezer (−20° C.). Brain samples were then analyzed for test articles.
After analysis, all the plasma results are reported as ng/mL and brain sample results are reported as ng/g. In the table below, “ND” stands for not determined and “NA” stands for not applicable.

Data set [2] deals with T1, RAGE (sRAGE) with β-amyloid as the RAGE ligand (Homo sapiens, UniProt Q15109).
T1 construct: generate soluble RAGE (sRAGE) comprised of the V and C domains
The data set is described as follows: ELISA: inhibition of sRAGE binding to plate-bound β-amyloid. Conditions: sRAGE 6 nM, hydrochloride salt form. On the procedure:
(§1) The following assay method may be used to identify compounds of Formula (I) or pharmaceutically acceptable salts thereof which are useful as inhibitors of binding of physiological RAGE ligands, such as S100b and β-amyloid, to RAGE.
(§2) S100b, β-amyloid, or CML (500 ng/100 μL/well) in 100 mM sodium bicarbonate/sodium carbonate buffer (pH 9.8) is loaded onto the wells of a NUNC Maxisorp flat bottom 96-well microtitre plate. The plate is incubated at 4° C. overnight. The wells are aspirated and treated with 50 mM imidazole buffer saline (pH 7.2) (with 5 mM CaCl2/MgCl2) containing 1% bovine serum albumin (BSA) (300 μL/well) for 1 h at RT. The wells are aspirated.
(§3) Test compounds are dissolved in nanopure water (concentration: 10-100 μM). DMSO may be used as co-solvent. 25 μL of test compound solution in 4% DMSO is added, along with 75 μL sRAGE (6 nM FAC) to each well and samples are incubated for 1 h at 37° C. The wells are washed several times with 155 mM NaCl pH 7.2 buffer saline and are soaked for several seconds between each wash.
(§4) Non-radioactive detection is performed by adding:
(§5) 10 μL Biotinylated goat F(ab′)2 Anti-mouse IgG. (8.0×10-4 mg/mL, FAC), 5 μL Alk-phos-Streptavidin (3×10-3 mg/mL FAC), 0.42 μL per 5 mL Monoclonal antibody for sRAGE (FAC 6.0×10-3 mg/mL) to 5 mL 50 mM imidazole buffer saline (pH 7.2) containing 0.2% bovine serum albumin and 5 mM CaCl2. The mixture is incubated for 30 minutes at RT.
(§6) 100 μL of complex is added to each well and incubation is allowed to proceed at rt for 1 h. Wells are washed several times with wash buffer and soaked several seconds between each wash. 100 μL 1 mg/mL (pNPP) in 1 M diethanolamine (pH adjusted to 9.8 with HCl) is added. Color is allowed to develop in the dark for 30 min to 1 h at rt. The reaction is quenched with 10 μL of stop solution (0.5-1.0 N NaOH in 50% ethanol) and the absorbance is measured spectrophotometrically with a microplate reader at 405 nm.
(§7) IC50 (μM) of in the ELISA assay represents the concentration of compound at which 50% signal has been inhibited.

For data set [3], the target named is T2, RAGE (sRAGE) with S100b as the RAGE ligand (Homo sapiens, UniProt Q15109).
T2 construct: generate soluble RAGE (sRAGE) comprised of the V and C domains
Kind of data set: ELISA: inhibition of sRAGE binding to plate-bound S100b. Particulars: sRAGE 6 nM, hydrochloride salt form. On the procedure: as §1, §2, §3, §4, §5, §6, §7
On the technique in general: ELISA stands for enzyme-linked immunosorbent assay.

Where [4] appears, read: brain, read-out: Brain concentration.
[5] abbreviates: plasma, read-out: Plasma concentration.

Molecules are shown by their SMILES. Structures can show the parent of a compound that is named as a salt. Where two headings read alike, the source gives them in different places.

T1 sequence (Q15109 23-342 limits assumed): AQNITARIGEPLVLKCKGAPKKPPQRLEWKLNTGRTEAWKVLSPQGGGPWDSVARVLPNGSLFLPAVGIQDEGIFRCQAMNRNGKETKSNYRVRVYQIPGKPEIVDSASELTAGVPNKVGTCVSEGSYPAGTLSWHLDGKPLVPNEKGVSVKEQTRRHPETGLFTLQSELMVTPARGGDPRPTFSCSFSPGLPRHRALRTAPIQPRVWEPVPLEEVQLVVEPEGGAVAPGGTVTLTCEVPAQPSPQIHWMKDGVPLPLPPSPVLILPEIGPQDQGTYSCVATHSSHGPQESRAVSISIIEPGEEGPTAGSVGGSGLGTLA
T2 sequence (Q15109 23-342 limits assumed): as above

What is called IC50 is the point on the concentration scale where inhibition reaches its midpoint. As to `CCCCc1nc(-c2ccc(OC[C@H](O)CN(C)C)cc2)cn1-c1ccc(Oc2ccc(Cl)cc2)cc1` [Example 1, (R)-1-(4-{2-butyl-1-[4-(4-chloro-phenoxy)-phenyl]-1H-imidazol-4-yl}-phenoxy)-3-dimethylamino-propan-2-ol dihydrochloride], the figures for the concentration at 6 h in data set [1] (setting [4]) and in data set [1] (setting [5]) were 626 ng/g and 18 ng/mL, respectively. In addition, the Kp at 6 h in data set [1] was determined as 34.1. For the same compound, the IC50 in data set [2] turned out to be 850 nM; in data set [3] it was 660 nM.
Turning to `CCCCc1nc(-c2ccc(OC[C@H](O)CN(CC)CC)cc2)cn1-c1ccc(Oc2ccc(Cl)cc2)cc1` [Example 2, (R)-1-(4-{2-butyl-1-[4-(4-chloro-phenoxy)-phenyl]-1H-imidazol-4-yl}-phenoxy)-3-diethylamino-propan-2-ol dihydrochloride], the concentration at 6 h in data set [1] (setting [4]) is 718 ng/g; in data set [1] (setting [5]), 24 ng/mL. For the same compound, the Kp at 6 h in data set [1] was determined as 30.6. In addition, the IC50 in data set [2] was determined as 760 nM; in data set [3], 550 nM.
With `CCCCc1nc(-c2ccc(OC[C@@H](O)CN(C)C)cc2)cn1-c1ccc(Oc2ccc(Cl)cc2)cc1` [Example 3, (S)-1-(4-{2-butyl-1-[4-(4-chloro-phenoxy)-phenyl]-1H-imidazol-4-yl}-phenoxy)-3-dimethylamino-propan-2-ol dihydrochloride], the concentration at 6 h in data set [1] (setting [4]) is 1120 ng/g; in data set [1] (setting [5]), 48 ng/mL. The Kp at 6 h in data set [1] was determined as 23.3. Further, the IC50 worked out at 800 nM in data set [2] and 840 nM in data set [3].
As to `CCCCc1nc(-c2ccc(OC[C@@H](O)CN(CC)CC)cc2)cn1-c1ccc(Oc2ccc(Cl)cc2)cc1` [Example 4, (S)-1-(4-{2-butyl-1-[4-(4-chloro-phenoxy)-phenyl]-1H-imidazol-4-yl}-phenoxy)-3-diethylamino-propan-2-ol dihydrochloride], the values for the concentration at 6 h in data set [1] (setting [4]) and in data set [1] (setting [5]) were 610 ng/g and 74 ng/mL, respectively. Moreover, the Kp at 6 h in data set [1] was 8.8. The IC50 came to 650 nM in data set [2] and 540 nM in data set [3].
Regarding `CCOCc1nc(-c2ccc(OC[C@H](O)CN(C)C)cc2)cn1-c1ccc(Oc2ccc(Cl)cc2)cc1` [Example 5, (R)-1-(4-{1-[4-(4-chloro-phenoxy)-phenyl]-2-ethoxymethyl-1H-imidazol-4-yl}-phenoxy)-3-dimethylamino-propan-2-ol dihydrochloride], the figures for the concentration at 6 h in data set [1] (setting [4]) and in data set [1] (setting [5]) were 3320 ng/g and 200 ng/mL, respectively. Further, in data set [1], the Kp at 6 h is 16.7. Besides, the IC50 was 1020 nM in data set [2] and 710 nM in data set [3].
Regarding `CCOCc1nc(-c2ccc(OC[C@@H](O)CN(C)C)cc2)cn1-c1ccc(Oc2ccc(Cl)cc2)cc1` [Example 6, (S)-1-(4-{1-[4-(4-chloro-phenoxy)-phenyl]-2-ethoxymethyl-1H-imidazol-4-yl}-phenoxy)-3-dimethylamino-propan-2-ol dihydrochloride], the concentration at 6 h in data set [1] (setting [4]) was determined as 3900 ng/g; in data set [1] (setting [5]), 155 ng/mL. Further, in data set [1], the Kp at 6 h turned out to be 25.3. In addition, the IC50 in data set [2] was 780 nM; in data set [3], 770 nM.
Consider `CCOCc1nc(-c2ccc(OC[C@H](O)CN(CC)CC)cc2)cn1-c1ccc(Oc2ccc(Cl)cc2)cc1` [Example 7, (R)-1-(4-{1-[4-(4-chloro-phenoxy)-phenyl]-2-ethoxymethyl-1H-imidazol-4-yl}-phenoxy)-3-diethylamino-propan-2-ol dihydrochloride], for which the concentration at 6 h came out at 1380 ng/g in data set [1] (setting [4]) and 153 ng/mL in data set [1] (setting [5]). Further, the Kp at 6 h in data set [1] came out at 9.1. In addition, the values for the IC50 in data set [2] and in data set [3] were 1170 nM and 1050 nM, respectively.
Regarding `CCOCc1nc(-c2ccc(OC[C@@H](O)CN(CC)CC)cc2)cn1-c1ccc(Oc2ccc(Cl)cc2)cc1` [Example 8, (S)-1-(4-{1-[4-(4-chloro-phenoxy)-phenyl]-2-ethoxymethyl-1H-imidazol-4-yl}-phenoxy)-3-diethylamino-propan-2-ol dihydrochloride], the results for the concentration at 6 h in data set [1] (setting [4]) and in data set [1] (setting [5]) were 2700 ng/g and 137 ng/mL, respectively. For the same compound, in data set [1], the Kp at 6 h was found to be 19.6. In addition, the results for the IC50 in data set [2] and in data set [3] were 1260 nM and 800 nM, respectively.
`CCCCc1nc(-c2ccc(OC[C@H](O)CNC)cc2)cn1-c1ccc(Oc2ccc(Cl)cc2)cc1` [Example 9, (R)-1-(4-{2-butyl-1-[4-(4-chloro-phenoxy)-phenyl]-1H-imidazol-4-yl}-phenoxy)-3-methylamino-propan-2-ol dihydrochloride]: the results for the concentration at 6 h in data set [1] (setting [4]) and in data set [1] (setting [5]) were 537 ng/g and 76 ng/mL, respectively. Besides, the Kp at 6 h in data set [1] stood at 7.2. The IC50 in data set [2] is 1590 nM; in data set [3] it was 1130 nM.
`CCCCc1nc(-c2ccc(OC[C@@H](O)CNC)cc2)cn1-c1ccc(Oc2ccc(Cl)cc2)cc1` [Example 10, (S)-1-(4-{2-butyl-1-[4-(4-chloro-phenoxy)-phenyl]-1H-imidazol-4-yl}-phenoxy)-3-methylamino-propan-2-ol dihydrochloride]: the figures for the concentration at 6 h in data set [1] (setting [4]) and in data set [1] (setting [5]) were 212 ng/g and 74 ng/mL, respectively. Further, the Kp at 6 h in data set [1] stood at 2.9. Further, the IC50 in data set [2] worked out at 1320 nM; in data set [3] it was 1140 nM.
Turning to `CCOCc1nc(-c2ccc(OC[C@H](O)CNC)cc2)cn1-c1ccc(Oc2ccc(Cl)cc2)cc1` [Example 13, (R)-1-(4-{1-[4-(4-chloro-phenoxy)-phenyl]-2-ethoxymethyl-1H-imidazol-4-yl}-phenoxy)-3-methylamino-propan-2-ol dihydrochloride], the IC50 in data set [2] is 2160 nM; in data set [3], 4610 nM.
The like results for `CCOCc1nc(-c2ccc(OC[C@@H](O)CNC)cc2)cn1-c1ccc(Oc2ccc(Cl)cc2)cc1` [Example 14, (S)-1-(4-{1-[4-(4-chloro-phenoxy)-phenyl]-2-ethoxymethyl-1H-imidazol-4-yl}-phenoxy)-3-methylamino-propan-2-ol dihydrochloride] were, in that order, 2370 nM and 4560 nM.
On to `CCNC[C@@H](O)COc1ccc(-c2cn(-c3ccc(Oc4ccc(Cl)cc4)cc3)c(COCC)n2)cc1` [Example 15, (R)-1-(4-{1-[4-(4-chloro-phenoxy)-phenyl]-2-ethoxymethyl-1H-imidazol-4-yl}-phenoxy)-3-ethylamino-propan-2-ol dihydrochloride], for which the IC50 in data set [2] came out at 2470 nM; in data set [3] it was 3140 nM.
Consider `CCNC[C@H](O)COc1ccc(-c2cn(-c3ccc(Oc4ccc(Cl)cc4)cc3)c(COCC)n2)cc1` [Example 16, (S)-1-(4-{1-[4-(4-chloro-phenoxy)-phenyl]-2-ethoxymethyl-1H-imidazol-4-yl}-phenoxy)-3-ethylamino-propan-2-ol dihydrochloride], for which the IC50 in data set [2] was 1550 nM; in data set [3], 3130 nM.
